Melting point data for 60 molecules are collected here from a melting point compilation (Tetko et al.; mined from patent text by program, amines drawn as free bases though some values may be those of a salt).

Consider `Cc1ccc(NC(=O)c2ccsc2)cc1-c1nc(N(C)C)nc2c1CNC(=O)N2c1c(F)cccc1F`, for which the melting point lay in the range of 214 to 215 °C. Under `CCOC(=O)c1cn(C)c2cnc3cc(F)c(N4CCNC(c5ccc(C)c(C)c5)C4)cc3c2c1=O` (stereo not given) stands 290 °C; under `CC(C)(C)[Si](OCC[C@H](O)CO)(c1ccccc1)c1ccccc1`, 70 to 72 °C. `CNc1cccc(-c2ccc3nnc(C)n3n2)c1` had a melting point of 223 to 226 °C. Under `NCCNC(=O)c1cc2c(Oc3ccc(Cl)cc3)cncc2s1` stands 111 to 114 °C.

As to `COC(=O)C1=C(C)NN=C(c2cccs2)C1c1ccccc1` (stereo not given), the melting point came to 194 °C.

Molecule `CC(=NNC(N)=O)c1ccc(Nc2nccc(-c3cccnc3)n2)cc1` displayed a melting point of 256 to 258 °C.

In turn, `COCn1cc(C2=C(C#N)C(c3cccc4nonc34)c3c[nH]nc3N2)c2ccccc21` (stereo not given) returned a melting point of 200 °C. For `O=C(NS(=O)(=O)c1ccccc1)c1cccc2nnsc12` the value was 173 to 175 °C. Under `CCCCn1c(=O)c(C(=O)Nc2ccncc2)c(O)c2sccc21` stands 212 to 216 °C. For `CCCCCCOc1ccc(C(=O)CSc2ccnc3ccccc23)c(OC)c1` the value was 88.5 to 89.5 °C; for `CC(C)Cn1c(=O)n(C)c(=O)c2cn(Cc3cccc4ccccc34)nc21`, 178 °C. `Cc1cccc(Nc2nc(-n3nc(C)cc3C)nc3ccccc23)c1` gave a melting point of 249 to 250 °C. For `Cc1ccc(-n2nc3c(cc2=O)CCc2sc(CO)cc2-3)cc1` the value was 166 to 169 °C; for `CCSC(C)(C)C(=O)C(C(=O)Nc1cc(NC(=O)CCCOc2ccc(C(C)(C)CC)cc2C(C)(C)CC)ccc1OC)N1C(=O)OC(C)(C)C1=O` (stereo not given), 155 to 156 °C. On to `O=C(O)Cn1c(=O)c(=O)[nH]c2c([N+](=O)[O-])c(Br)c(Br)cc21`, for which the melting point lay in the range of 260 to 264 °C. In the case of `Cc1ccc(C2SCC(=O)CS2)cc1`, the melting point was 112 to 113 °C. `FC(F)(F)c1cc(OCc2ccc(-c3ccccc3-c3nnn(C(c4ccccc4)(c4ccccc4)c4ccccc4)n3)cc2)c2c(n1)CCCC2` showed a melting point of 141 to 143 °C.

`Cc1c(NC(=O)c2cccc(Oc3ccccc3)c2)ccc2cc(CN3CCCC3)cnc12` registered a melting point of 147 to 148 °C. Under `CCc1nc(NC)sc1C(=O)c1ccc(N)c([N+](=O)[O-])c1` stands 210 to 215 °C; under `C[C@@H]1O[C@](C#Cc2ccoc2)(C(F)(F)F)c2cc(Cl)ccc2NC1=O` (relative stereo), 214 to 215 °C. Under `CCOP(=O)(OCC)C(O)c1cccc([N+](=O)[O-])c1` (stereo not given) stands 93 to 95 °C; under `Cc1[nH]c(C(=O)Nc2ccc(C#N)cc2)c(C)c1-c1nc2ccc(C(=O)c3ccccc3)cc2[nH]1`, 252 to 254 °C. Under `COc1ccc(C2=NNC(=O)CC2c2ccc(OC)c(F)c2)cc1` (stereo not given) stands 171 to 173 °C; under `CN(C)CCNC1=CC(=O)c2oc(-c3cc(F)ccc3F)nc2C1=O`, 181 to 182 °C; under `Cc1cc(OCCC[Si](C)(C)C)c(Cl)cc1[N+](=O)[O-]`, 66 to 68 °C. For `Cc1ccnc(F)c1N`, the melting point was 63 to 64 °C. Regarding `OCC1Cc2c(c(Br)cc3c(-c4ccccc4)noc23)O1` (stereo not given), the melting point is 164 to 166 °C. `CC(=O)Nc1cc(O)ccc1Oc1ccccc1` had a melting point of 151 to 153 °C. Under `Cn1c(=O)c2cc(C(=O)O)cn2c2ccccc21` stands 330 to 333 °C; under `S=C=NCc1ccc(Cl)nc1`, 22 °C.

Molecule `CC1(C)OCc2cc(C(O)CNCCCCCCOCCCCc3ccccc3)ccc2O1` (stereo not given) came in with a melting point of 68 to 70 °C. For `N#Cc1c[nH]c2c(NS(=O)(=O)c3ccc(N)nc3)cccc12` the value was above 300 °C; for `COc1cc(OC)c(-c2cc3ccccc3s2)cc1/C=C/C(=O)c1ccc(C(=O)NC(=O)C(C)C)cc1`, 208 to 209 °C. In the case of `COc1ccc(-c2nc(S(=O)(=O)C(C)C)[nH]c2-c2ccncc2)cc1`, the melting point was 262 to 266 °C. Under `O=C(Nc1nc(Cl)nc(Cl)n1)NS(=O)(=O)c1cccc2cccnc12` stands 145 to 147 °C. For `O=C(O)c1cc(-n2c(-c3ccccc3)cc3c2CCc2ccccc2-3)ccc1O` the value was 223 to 225 °C. `O=S(=O)(c1ccc(C(CC2CCOCC2)c2ccc(-c3ccc(Cn4cncn4)cn3)[nH]2)cc1)C1CC1` (stereo not given) registered a melting point of 152 to 153 °C.

Regarding `CCCCC(=O)N(Cc1ccc(-c2ccccc2-c2nnn[nH]2)cc1)C(C(=O)O)c1ccccc1` (stereo not given), the melting point lay in the range of 145 to 148 °C.

The molecule `NCCC1(O)c2ccccc2CCc2ccccc21` displayed a melting point of 113 to 114 °C. With `CCCC(=O)c1cnc2c(OC)cccc2c1Nc1ccccc1CO`, the melting point lay in the range of 159 to 161 °C.

The molecule `Cn1cc(C(=O)O)c(=O)c2cc3cc(F)c(N4CCNC(c5cccs5)C4)cc3nc21` (racemic) had a melting point of 268 to 270 °C. `COc1ccc(C=C2c3ccccc3C(=NOCC(=O)O)c3ccccc32)cc1O`: the melting point lay in the range of 232 to 234 °C.

`CC1=C(C(=O)OC(C)C)C(c2cccc([N+](=O)[O-])c2)C(C(=O)C(C)S(=O)(=O)NC(C)C)=C(C)N1` (stereo not given) had a melting point of 117 to 120 °C. Under `COc1ccc(-c2sc3c(c2CN(C)Cc2ccccc2)c(=O)c(C=O)cn3Cc2ccccc2OC)cc1` stands 181 to 185 °C. Molecule `CC(C)C(=O)NN(C)C` returned a melting point of 94 to 96 °C.

`O=C(O)Cc1ccc(-c2ccc(C(CC3CCOCC3)c3ccc(S(=O)(=O)C4CC4)cc3)[nH]2)nc1` (stereo not given) registered a melting point of 124 to 127 °C. For `COC(=O)C1=CN(CCCc2ccccc2)C=C(C(=O)OC)C1c1ccc(OC)c(OC)c1` the value was 107 to 113 °C. Under `CCOC(=O)c1nn(Cc2ccc(Cl)c(Cl)c2)c(-c2ccc(Cl)cc2)c1C` stands 118 °C; under `c1ccc(CSc2cnccc2C2=NOCCO2)cc1`, 110 to 112 °C; under `COc1cc(OC)nc(Sc2nccc(-c3ccc(Cl)cc3)c2C(=O)O)n1`, 219 to 223 °C. `CCOP(=O)(OCC)C(O)c1ccc(NC(=O)CCc2oc(-n3cnc4ccccc43)nc2-c2ccc(Cl)cc2)cc1` (stereo not given) came in with a melting point of 171 to 172 °C. Molecule `Fc1ccc2[nH]cc(Cc3cccnc3)c2c1` came in with a melting point of 109 to 112 °C. Under `CN(Cc1cc2c3c(c1)c(=O)c(C(=O)NCc1ccc(F)cc1)cn3CC(=O)N2C)C[C@@H](O)c1cccnc1` stands 108 to 110 °C; under `NC(=O)c1[nH]c2ccccc2c1-c1ccc(NC(=O)Nc2ccccc2F)cc1`, 146 to 148 °C.

For `CCCCn1c(C)cc(=O)n(C)c1=O`, the melting point is 181 to 182 °C. `CSc1ncc(Cc2cccnc2)c(=S)[nH]1` gave a melting point of 211 to 213 °C. For `CC(=O)OCCOc1ncnc(NS(=O)(=O)c2ccc(C)cc2)c1CCc1ccccc1` the value was 120 to 123 °C; for `COC(=O)NCCOC(=O)COc1cc(Oc2ccc(C(F)(F)F)cc2Cl)ccc1[N+](=O)[O-]`, 105 to 108 °C. For `CC(Cn1cncn1)c1ccc(Cl)cc1Cl` (stereo not given) the value was 79.5 °C.

Broadly, the melting point is the temperature of the solid-liquid transition.
